“Also recorded” adds a separate entry of the source. Like-named read-outs stand apart in the source and are kept apart here.
How the values were obtained:
[1] = Aggregation behavior (Vis absorption in phosphate buffer, with or without Triton X-100); assay type: physicochemical; conditions: phosphate buffer vs DMSO
Procedure: (§1) Squaraine dyes were dissolved in dimethyl sulfoxide, whereas zinc phthalocyanine required dimethylformamide as a solvent. All stock solutions were prepared at 0.67 mM concentration and stored in the dark at 4 °C until further use. For spectroscopic characterization, 1.0 µM stock solutions of the squaraine dyes in dimethyl sulfoxide were serially diluted into a series of solvents (chloroform, dimethyl sulfoxide, methanol, and phosphate buffer) to obtain at least five defined concentrations. The absorption spectra of these dilutions were recorded and used to calculate molar extinction coefficients according to the Beer–Lambert law. Additional working solutions at a 1.0 µM concentration were prepared in dimethyl sulfoxide and buffer, and 1.0% Triton X-100 was added where required to investigate dye aggregation.

[2] = test system: prostate adenocarcinoma (PC-3) cell line; assay: MTT dark and light-induced cytotoxicity in PC-3; assay type: cell-based, human; conditions: for IC50: Homo sapiens, 24 h incubation; for tumor selectivity ratio (TSR): IC50 NHDF irradiated/IC50 PC-3 irradiated; for Photodynamic ratio (PTR): PC-3, IC50 dark/IC50 irradiated
Procedure: For potential applicability as photosensitizers in PDT, these candidates are expected to display cytotoxic effects only after photoactivation, namely, and preferably restricted to target tissue cells, without inducing damage to healthy counterparts. To evaluate this, prostate adenocarcinoma PC-3 cells and non-tumoral NHDF fibroblasts were incubated with increasing concentrations of the squaraine dyes for 24 h. Subsequently, the cells were irradiated using an LED system centered at 663 nm, a wavelength close to the absorption maximum of the monomeric dye forms. Twenty-four hours post-irradiation, cellular metabolic activity was assessed by the MTT assay.
The in cell photocytotoxicity of the squaraine dyes was assessed using the MTT assay. When cells reached 90–95% confluence, they were trypsinized using a trypsin-EDTA solution (0.125 g/L trypsin, 0.02 g/L EDTA), counted via trypan-blue exclusion in a Neubauer chamber, and diluted to 2 × 10^4 cells/mL. A 100 µL aliquot of this suspension was seeded into each well of 96-well plates and incubated for 48 h to allow for cell attachment and resumption of proliferation.
After this period, the medium was removed, and cells were treated with various concentrations of the squaraine dyes (0.01, 0.1, 1, 2.5, 5, and 10 µM) in the appropriate culture medium. […] Negative controls consisted of cells exposed only to culture medium. All experiments were performed in quadruplicate and independently repeated.
After 24 h of exposure to the dyes, the cells were subjected to two different irradiation conditions: the first group was not irradiated and was protected from ambient light for 21 min, and the second group was irradiated for 7 min.
Twenty-four hours post-irradiation, the culture medium was removed, cells were washed with 100 µL PBS, and 100 µL of MTT solution (5 mg/mL in serum- and antibiotic-free medium) was added per well. Cells were incubated for 4 h at 37 °C, after which the supernatant was discarded, and the formazan crystals were solubilized in dimethyl sulfoxide. Absorbance was measured at 570 nm using a Bio-Rad xMark microplate reader.
Cell viability was expressed as the percentage of absorbance in treated samples relative to the untreated negative control. Data were statistically analyzed by ordinary two-way ANOVA followed by the Šidák multiple comparisons test, comparing irradiated and non-irradiated conditions at the same concentration, with differences considered statistically significant at a p-value < 0.05. Half-maximal inhibitory concentration values reported in this work were obtained by fitting the data to a sigmoidal model with a 95% confidence interval. All assays were performed in quadruplicate and replicated independently at least twice. Phototoxicity and tumor selectivity ratios were quantified according to Equations (6) and (7):(6) PTR = IC50 dark condition/IC50 irradiated condition (7) TSR = IC50 for NHDF cells under irradiated condition/IC50 for cancer cell line under irradiated condition
Irradiation was performed using a light-emitting diode array centered at 663 ± 8 nm to match the absorption maximum of the dyes. The LED (Roithner; 8.3 mW radiant flux) was integrated into flat-bottom 96-well plates and powered by a regulated current source. The irradiance was 15.8 mW/cm^2, and the total energy delivered per well was 3.49 J after 7 min, ensuring precise light dosing for all experiments.

[3] = Photophysical properties in phosphate buffer in the absence of HSA; assay type: physicochemical; conditions: phosphate buffer (pH 7.4)
Procedure: as §1
(§2) For fluorometric experiments, the squaraine stock solutions were initially prepared in dimethylformamide and subsequently diluted with phosphate buffer for the protein–dye interaction analysis. Human serum albumin stock solution was then added to these mixtures, while keeping the dye concentration fixed at 2.0 µM and varying the protein concentration from 0 to 3.0 µM (0.0 to 3.0 µM for squaraines 5, 9, and 11, and from 0 to 6.0 µM for squaraine 13). Fluorescence intensities of the resulting solutions were recorded after 0, 3, and 24 h of incubation with the protein. The excitation wavelengths and excitation/emission slit widths used for the measurements were optimized for each dye, as listed in Table 6.

[4] = target: human serum albumin (HSA) (Homo sapiens, UniProt P02768); assay: Fluorometric squaraine-albumin binding titration; conditions: for detection limit (DL): HSA detection, DL=3σ/S; for quantification limit (QL): HSA quantification, QL=10σ/S; for fluorescence intensity without protein (F0): dye 2.0 µM in phosphate buffer, no HSA; for fluorescence intensity at the highest protein concentration (F): dye 2.0 µM, highest HSA concentration; for Stokes shift (ΔS) / absorption maximum (λabs) / emission maximum (λem) / fluorescence quantum yield (ΦF): phosphate buffer (pH 7.4), HSA presence; for F/F0: ratio of fluorescence with HSA to fluorescence without HSA; for incubation time to reach maximum fluorescence with HSA: room temperature, protected from light; for incubation time to reach maximum fluorescence with HSA / incubation time for maximum interaction with HSA: read at 0 min, 3 h, 24 h
Chain of human serum albumin (HSA) (P02768 25-609): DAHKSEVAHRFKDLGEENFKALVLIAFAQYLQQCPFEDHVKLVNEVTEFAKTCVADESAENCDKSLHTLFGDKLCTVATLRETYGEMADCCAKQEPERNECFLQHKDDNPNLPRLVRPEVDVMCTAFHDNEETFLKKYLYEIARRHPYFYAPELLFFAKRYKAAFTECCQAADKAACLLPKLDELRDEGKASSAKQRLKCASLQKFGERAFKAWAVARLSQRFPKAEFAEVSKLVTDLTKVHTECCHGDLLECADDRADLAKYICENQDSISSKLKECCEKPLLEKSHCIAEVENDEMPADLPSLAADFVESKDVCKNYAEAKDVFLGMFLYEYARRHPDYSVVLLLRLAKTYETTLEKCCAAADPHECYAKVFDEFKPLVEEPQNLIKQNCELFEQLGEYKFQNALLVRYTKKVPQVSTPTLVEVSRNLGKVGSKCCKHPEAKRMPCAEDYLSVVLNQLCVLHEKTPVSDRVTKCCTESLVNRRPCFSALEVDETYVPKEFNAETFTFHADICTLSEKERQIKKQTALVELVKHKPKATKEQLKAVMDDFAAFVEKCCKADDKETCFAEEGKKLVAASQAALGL
Procedure: as §2
The squaraine-albumin binding constants was calculated using the Benesi–Hildebrand equation (Equation (3)) based on the data obtained from the fluorescence experiments:(3) 1/Fx−F0=1/F∞−F0+1/Kb(F∞−F0)1/[HSA] where F0 is the fluorescence intensity of the squaraine in albumin-free buffer, Fx is the fluorescence observed after protein incubation at a specific concentration, F∞ is the fluorescence at the point of complete interaction, Kb is the binding constant, and [HSA] is the albumin concentration.
Quantification and detection limits (QL and DL, respectively) were determined from a calibration curve of maximum fluorescence intensity against protein concentration. The slope of this curve was then used to calculate the method’s sensitivity using Equations (4) and (5):(4) QL=10σ/S (5) DL=3σ/S where σ refers to the blank standard deviation and S (sensitivity) to the linear regression slope between the fluorescence intensity and albumin concentration.

[5] = light or radiation study, PC-3, Light, 7 min LED 663 nm, MTT 24 h post-irradiation
[6] = phosphate buffer, bound vs free
[7] = slope of fluorescence intensity vs HSA concentration

Row | Compound | aggregation behavior [1] | IC50 [2, 5] [nM] | IC50 ([2]; PC-3, Dark, MTT 24 h later) [nM] | Stokes shift (ΔS) [3] [nm] | absorption maximum (λabs) [3] [nm] | emission maximum (λem) [3] [nm] | fluorescence quantum yield (ΦF) [3] | molar absorption coefficient (ε) [3] [M⁻¹ cm⁻¹] | sensitivity (S) [4] [nM⁻¹] | detection limit (DL) [4] [nM] | quantification limit (QL) [4] [nM] | fluorescence intensity without protein (F0) [4] [a.u.] | fluorescence intensity at the highest protein concentration (F) [4] [a.u.] | Stokes shift (ΔS) [4] [nm] | absorption maximum (λabs) [4] [nm] | emission maximum (λem) [4] [nm] | fluorescence quantum yield (ΦF) [4] | F/F0 [4] | incubation time to reach maximum fluorescence with HSA [4] [h] | sensitivity (S) [4, 7] | also measured
1 | CC1(C)C(=CC2=C([O-])C(=CC3=[N+](CCCc4ccccc4)c4ccccc4C3(C)C)C2=O)N(CCCc2ccccc2)c2ccccc21 [Dye 5, 4-[3,3-Dimethyl-1-(3-phenylpropyl)-indol-1-ium-2-ylmethylene]-2-[3,3-dimethyl-1-(3-phenylpropyl)indolin-2-ylidenemethyl]-3-oxocyclobut-1-en-1-olate] | coexistence of H- and J-type aggregates | 898 | > 10000 | 91 | 605 | 696 | 0.02 | 89000 | 209000 | 266 | 886 | 11.46 | 680.15 | 45 | 604 | 649 | 0.20 | 59.35 | 24 | 209000 nM⁻¹ | reduction in viability ([2]; PC-3 cells, irradiated, 1.0 μM): approximately 60%; blue shift in maximum emission wavelength upon HSA binding [4, 6]: 47 nm; reduction in Stokes shift upon HSA binding [4, 6]: 50%
2 | CC1(C)C(=CC2=C(N)C(=CC3=[N+](CCCc4ccccc4)c4ccccc4C3(C)C)C2=O)N(CCCc2ccccc2)c2ccccc21.[I-] [Dye 9, 2-{2-Amino-3-[3,3-dimethyl-1-(3-phenylpropyl)indolin-2-ylidenemethyl]-4-oxocyclobut-2-en-1-ylidenemethyl}-3,3-dimethyl-1-(3-phenylpropyl)-indol-1-ium Iodide] | coexistence of H- and J-type aggregates | 93 | 1210 | 37 | 605 | 642 | 0.00 | 58000 | 318000 | 324 | 1079 | 9.30 | 917.53 | 8 | 651 | 659 | 0.07 | 98.66 | – | 318 µM | tumor selectivity ratio (TSR) [2]: 40.8; Photodynamic ratio (PTR) [2]: 13; incubation time for maximum interaction with HSA [4]: immediately upon addition to the protein solution
3 | CNC1=C(C=C2N(CCCc3ccccc3)c3ccccc3C2(C)C)C(=O)C1=CC1=[N+](CCCc2ccccc2)c2ccccc2C1(C)C.[I-] [Dye 11, 2-{3-[3,3-Dimethyl-1-(3-phenylpropyl)indolin-2-ylidenemethyl]-2-(methylamino)-4-oxocyclobut-2-en-1-ylidenemethyl}-3,3-dimethyl-1-(3-phenylpropyl)-indol-1-ium Iodide] | coexistence of H- and J-type aggregates; also recorded: lowest tendency to aggregate | 90 | 1440 | – | 655 | – | 0.01 | 71000 | – | 420 | 1401 | 1.00 | 360.94 | 10 | 652 | 662 | 0.04 | – | – | 119 µM | tumor selectivity ratio (TSR) [2]: 36.0; Photodynamic ratio (PTR) [2]: 16; incubation time for maximum interaction with HSA [4]: immediately upon addition to the protein solution
4 | CC1(C)C(=CC2=C(NCc3ccc4ccc5cccc6ccc3c4c56)C(=CC3=[N+](CCCc4ccccc4)c4ccccc4C3(C)C)C2=O)N(CCCc2ccccc2)c2ccccc21.[I-] [Dye 14, 2-({3-[3,3-dimethyl-1-(3-phenylpropyl)indolin-2-ylidenemethyl]-4-oxo-2-[(pyren-1-ylmethyl)amino]cyclobut-2-en-1-ylidene}methyl)-3,3-dimethyl-1-(3-phenylpropyl)-indol-1-ium Iodide] | predominantly form J-aggregates | > 10000 | > 10000 | – | 672 | – | 0.00 | 67000 | – | 361 | 1203 | 4.12 | 115.89 | 4 | 663 | 667 | 0.01 | 28.13 | 24 | 39 µM | –
